Data reported in patent US6369080B2, “Selective factor Xa inhibitors” (COR Therapeutics, Inc., priority 1996, dated 2002).

Biological target: T1, thrombin (Homo sapiens, UniProt P00734)
T1 construct: converts the zymogen prothrombin into the active procoagulant thrombin
Experiment: Thrombin amidolytic assay (chromogenic substrate Chromozym TH)
Format: biochemical
Conditions: room temperature, pH 7.5, 5 minutes preincubation
Procedure: The compounds of the present invention are first dissolved in a buffer to give solutions containing concentrations such that assay concentrations range from 0-100 μM. In assays for thrombin, prothrombinase and factor Xa, a synthetic chromogenic substrate would be added to a solution containing a test compound and the enzyme of interest and the residual catalytic activity of that enzyme would then be determined spectrophotometrically.
The IC50 of a compound is determined from the substrate turnover. The IC50 is the concentration of test compound giving 50% inhibition of the substrate turnover.
Factor Xa and thrombin assays are performed at room temperature, in 0.02 M Tris HCl buffer, pH 7.5, containing 0.15 M NaCl. The rates of hydrolysis of the paranitroanilide substrate S-2765 (Chromogenix) for factor Xa, and the substrate Chromozym TH (Boehringer Mannheim) for thrombin following preincubation of the enzyme with the test compound for 5 minutes at room temperature are determined using a Softmax 96-well plate reader (Molecular Devices), monitored at 405 nm to measure the time dependent appearance of p-nitroanilide.

IC50: 8 nM
Compound: N=C(N)NCCC[C@H](NC(=O)Cn1cccc(NS(=O)(=O)Cc2ccccc2)c1=O)C(=O)c1nccs1 [Example 9]
